Data from patent US20250268859A1, “OXAFURAMINE, (1R)-N-ETHYL-1-[(2R)-OXOLAN-2-YL]-2-[…], HYDROCHLORIDE AND DERIVATIVES THEREOF FOR TREATING ALZHEIMER'S DISEASE (AD), […] […], […] WITH LEWY BODIES (DLB), MIXED […], FRON[…] DEGENERATION (FTLD), AND PARKINSON'S DISEASE (PD)” (NLS Pharmaceutics AG, priority 2021, published 2025).

Tests used:
[1] = molecular target: T1, NET (h) (Homo sapiens, UniProt P23975); assay: Radioligand binding panel, NET (h) (antagonist radioligand); conditions: % inhibition of control specific binding
T1 construct: Eurofins (contract panel)
T1 sequence (P23975 whole entry): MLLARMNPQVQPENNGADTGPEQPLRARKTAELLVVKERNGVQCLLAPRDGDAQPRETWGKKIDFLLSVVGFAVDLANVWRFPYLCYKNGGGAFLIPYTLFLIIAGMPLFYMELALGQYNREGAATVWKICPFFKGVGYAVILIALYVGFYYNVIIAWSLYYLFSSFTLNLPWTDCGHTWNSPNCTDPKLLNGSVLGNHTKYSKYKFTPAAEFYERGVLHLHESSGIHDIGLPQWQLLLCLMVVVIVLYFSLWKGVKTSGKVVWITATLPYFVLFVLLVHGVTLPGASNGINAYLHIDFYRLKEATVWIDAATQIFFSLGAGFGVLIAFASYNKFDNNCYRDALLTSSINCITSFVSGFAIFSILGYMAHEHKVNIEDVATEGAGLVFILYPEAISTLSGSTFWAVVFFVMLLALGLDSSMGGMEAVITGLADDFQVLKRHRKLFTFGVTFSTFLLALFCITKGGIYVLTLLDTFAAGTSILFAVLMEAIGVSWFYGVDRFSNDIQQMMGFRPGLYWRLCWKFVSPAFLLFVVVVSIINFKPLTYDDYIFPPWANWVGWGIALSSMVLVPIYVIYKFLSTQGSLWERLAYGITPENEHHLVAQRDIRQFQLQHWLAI
Experimental: (§1) Oxafuramine is tested at 10^−5 M, calculated as a % inhibition of control specific binding of a radioactively labeled ligand specific for each target.
(§2) This binding profile panel was broadly defined with roughly an equal number of selective, central and peripheral therapeutically relevant targets, including native animal tissues, radioligands and specific enzymes involved in cell cycle regulation in accordance with Eurofins Standard Operating Procedure (www.eurofins.fr).
(§3) For radioligand binding experiments, the half maximal inhibitory concentration (IC50) and the half maximal effective concentration (EC50) values were determined (via computer software) by nonlinear regression analysis of the competition curves using Hill equation curve fitting. The inhibition constants (Ki) were calculated using the Cheng-Prusoff equation (Ki=IC50/(1+(L/KD)), where L is the concentration of radioligand in the assay, and KD is the affinity of the radioligand for the receptor.
(§4) The results are expressed as a % control specific binding ([measured specific binding/control specific binding]×100) and as a % inhibition of control specific binding (100−[(measured specific binding/control specific binding)×100]) obtained in the presence of the test compounds. […]

[2] = molecular target: T2, M1 (h) (Homo sapiens, UniProt P11229); assay: Radioligand binding panel, M1 (h) (antagonist radioligand); conditions: % inhibition of control specific binding
T2 construct: Eurofins (contract panel)
T2 sequence (P11229 1-460): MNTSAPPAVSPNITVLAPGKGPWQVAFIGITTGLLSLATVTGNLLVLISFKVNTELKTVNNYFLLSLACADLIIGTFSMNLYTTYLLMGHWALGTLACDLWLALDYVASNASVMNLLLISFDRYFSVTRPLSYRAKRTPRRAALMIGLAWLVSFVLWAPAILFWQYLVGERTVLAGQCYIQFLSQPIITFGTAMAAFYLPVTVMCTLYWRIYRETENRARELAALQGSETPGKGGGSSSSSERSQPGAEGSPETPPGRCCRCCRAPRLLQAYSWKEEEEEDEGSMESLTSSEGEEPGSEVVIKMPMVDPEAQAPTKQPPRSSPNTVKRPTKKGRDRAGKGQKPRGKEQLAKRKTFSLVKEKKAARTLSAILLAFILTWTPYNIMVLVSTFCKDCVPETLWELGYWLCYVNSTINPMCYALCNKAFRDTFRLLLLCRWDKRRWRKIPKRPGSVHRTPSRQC
Experimental: as §1, §2, §3, §4

Q: With CCN[C@H](Cc1ccccc1)[C@H]1CCCO1 [Oxafuramine, (1R)—N-ethyl-1-[(2R)-oxolan-2-yl]-2-phenylethanamine] as the molecule, how does the inhibition at 10 µM ([1]; 10^−5 M) read?
A: 53.3%

Q: What about the “% Inhibition at 10^−5M, NET (h) (antagonist radioligand)” value [1] of the same molecule?
A: appreciable potencies

Q: And the inhibition at 10 µM ([2]; 10^−5 M)?
A: ~30%

Q: What about the “% Inhibition at 10^−5M, M1 (h) (antagonist radioligand)” value [2] of the same molecule?
A: 29.7%
